Common to all, as to experiment: Kinase panel study
Format in all cases: biochemical
Common to all, as to details: read-out: Percentage of inhibition; for inhibition at 1 µM: 1000nM; for inhibition at 10 µM: 10000nM

For one experiment, the target named is T1, ABL1 E255K (Homo sapiens, UniProt P00519, E255K).
T1 construct: purchased Thermo Fisher Scientific
Put shortly:
(§1)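 In vitro, kinase panel; ZLyte or Adapta SOP; single-concentration testing (1 or 10 µM); output = % inhibition, plus IC50 in panel.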

Another experiment has as its target T2, AURKA (Aurora A) (Homo sapiens, UniProt O14965).
T2 construct: purchased Thermo Fisher Scientific
T2 sequence (O14965 1-403): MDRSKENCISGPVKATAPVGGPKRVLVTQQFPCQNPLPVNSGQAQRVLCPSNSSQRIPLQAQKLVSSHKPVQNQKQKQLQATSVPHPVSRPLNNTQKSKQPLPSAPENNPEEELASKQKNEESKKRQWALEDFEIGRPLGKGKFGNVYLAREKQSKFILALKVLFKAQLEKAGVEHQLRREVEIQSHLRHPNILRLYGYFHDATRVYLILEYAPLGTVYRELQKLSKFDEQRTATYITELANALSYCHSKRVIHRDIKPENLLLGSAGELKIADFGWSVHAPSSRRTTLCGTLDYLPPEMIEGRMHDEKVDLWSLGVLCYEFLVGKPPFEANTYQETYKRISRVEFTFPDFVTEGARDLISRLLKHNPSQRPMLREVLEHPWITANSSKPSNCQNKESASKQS
An outline of the steps:
as §1

Another experiment concerns the target T3, CDK4/cyclin D1 (Homo sapiens, UniProt P11802).
T3 construct: purchased Thermo Fisher Scientific
An outline of the steps: as §1

The target in a further experiment is T4, CDK9/cyclin T1 (Homo sapiens, UniProt P50750).
T4 construct: purchased Thermo Fisher Scientific
An outline of the steps:
as §1

The target in experiment [1] is T5, CSNK1E (CK1 epsilon) R178C (Homo sapiens, UniProt P49674, R178C).
T5 construct: purchased Thermo Fisher Scientific
T5 sequence (P49674 1-416 R178C): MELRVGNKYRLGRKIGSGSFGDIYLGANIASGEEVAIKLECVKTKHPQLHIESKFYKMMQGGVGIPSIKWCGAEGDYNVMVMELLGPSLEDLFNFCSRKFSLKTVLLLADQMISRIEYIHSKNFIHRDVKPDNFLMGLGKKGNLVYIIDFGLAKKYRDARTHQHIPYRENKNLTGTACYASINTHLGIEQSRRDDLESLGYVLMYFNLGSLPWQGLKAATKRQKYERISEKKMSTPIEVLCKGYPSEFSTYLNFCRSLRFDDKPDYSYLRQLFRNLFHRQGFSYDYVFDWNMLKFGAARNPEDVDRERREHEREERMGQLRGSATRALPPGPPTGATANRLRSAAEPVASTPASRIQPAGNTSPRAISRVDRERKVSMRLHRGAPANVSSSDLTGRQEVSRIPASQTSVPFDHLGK
An outline of the steps:
as §1

In a further experiment the target is T6, CSNK2A2 (CK2 alpha 2) (Homo sapiens, UniProt P19784).
T6 construct: purchased Thermo Fisher Scientific
Put shortly: as §1

A further experiment deals with T7, FGFR4 (Homo sapiens, UniProt P22455).
T7 construct: purchased Thermo Fisher Scientific
An outline of the steps:
as §1

For another experiment, the target named is T8, MELK (Homo sapiens, UniProt Q14680).
T8 construct: purchased Thermo Fisher Scientific
Put shortly: as §1

The target of the next experiment is T9, PAK2 (PAK65) (Homo sapiens, UniProt Q13177).
T9 construct: purchased Thermo Fisher Scientific
An outline of the steps:
as §1

The next experiment deals with T10, PI4KA (PI4K alpha) (Homo sapiens, UniProt P42356).
T10 construct: purchased Thermo Fisher Scientific
An outline of the steps: as §1

Another experiment deals with T11, RPS6KB2 (p70S6Kb) (Homo sapiens, UniProt Q9UBS0).
T11 construct: purchased Thermo Fisher Scientific
Put shortly: as §1

Another experiment has as its target T12, SGK (SGK1) (Homo sapiens, UniProt O00141).
T12 construct: purchased Thermo Fisher Scientific
T12 sequence (O00141 1-431): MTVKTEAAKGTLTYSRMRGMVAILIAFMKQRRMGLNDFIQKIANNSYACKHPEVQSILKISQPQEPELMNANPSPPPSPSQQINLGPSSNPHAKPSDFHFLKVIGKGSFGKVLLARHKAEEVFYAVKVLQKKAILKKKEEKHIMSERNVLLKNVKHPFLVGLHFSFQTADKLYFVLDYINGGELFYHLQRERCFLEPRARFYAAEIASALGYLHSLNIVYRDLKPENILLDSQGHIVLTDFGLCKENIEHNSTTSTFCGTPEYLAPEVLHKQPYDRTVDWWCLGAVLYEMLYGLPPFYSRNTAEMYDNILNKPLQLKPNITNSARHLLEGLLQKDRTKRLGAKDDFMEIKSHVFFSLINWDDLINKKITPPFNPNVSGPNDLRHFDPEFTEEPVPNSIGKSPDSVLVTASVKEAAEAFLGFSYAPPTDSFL
An outline of the steps: as §1

T1 sequence (P00519 whole entry E255K): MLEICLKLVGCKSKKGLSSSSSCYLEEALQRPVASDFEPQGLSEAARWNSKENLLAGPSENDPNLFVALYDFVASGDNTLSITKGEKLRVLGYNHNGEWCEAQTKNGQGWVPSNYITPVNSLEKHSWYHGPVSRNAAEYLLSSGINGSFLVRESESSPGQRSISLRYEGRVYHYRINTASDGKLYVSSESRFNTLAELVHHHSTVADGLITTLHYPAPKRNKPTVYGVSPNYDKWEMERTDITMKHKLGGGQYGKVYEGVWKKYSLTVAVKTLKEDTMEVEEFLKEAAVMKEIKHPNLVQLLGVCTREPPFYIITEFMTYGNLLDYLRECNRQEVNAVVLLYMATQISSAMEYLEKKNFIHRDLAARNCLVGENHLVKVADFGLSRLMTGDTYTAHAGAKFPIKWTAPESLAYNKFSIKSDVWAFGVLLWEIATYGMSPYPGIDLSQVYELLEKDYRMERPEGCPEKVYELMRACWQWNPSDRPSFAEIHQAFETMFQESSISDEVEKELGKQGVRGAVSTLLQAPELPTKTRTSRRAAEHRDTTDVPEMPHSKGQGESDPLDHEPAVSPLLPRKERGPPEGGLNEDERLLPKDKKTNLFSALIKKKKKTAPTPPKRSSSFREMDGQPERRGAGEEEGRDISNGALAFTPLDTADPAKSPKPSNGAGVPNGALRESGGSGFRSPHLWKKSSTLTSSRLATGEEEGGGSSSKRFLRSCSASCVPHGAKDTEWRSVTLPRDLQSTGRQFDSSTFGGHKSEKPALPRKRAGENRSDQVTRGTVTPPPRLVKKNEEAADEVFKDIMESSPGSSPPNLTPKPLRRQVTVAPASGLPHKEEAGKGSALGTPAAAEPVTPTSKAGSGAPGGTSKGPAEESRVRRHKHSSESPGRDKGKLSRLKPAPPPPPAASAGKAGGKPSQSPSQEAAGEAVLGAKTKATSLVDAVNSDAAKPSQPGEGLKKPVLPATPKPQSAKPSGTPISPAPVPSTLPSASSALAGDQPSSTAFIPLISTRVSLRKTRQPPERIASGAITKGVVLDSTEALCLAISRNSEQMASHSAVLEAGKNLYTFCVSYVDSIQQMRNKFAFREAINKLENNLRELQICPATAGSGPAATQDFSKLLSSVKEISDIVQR
T3 sequence (P11802 whole entry): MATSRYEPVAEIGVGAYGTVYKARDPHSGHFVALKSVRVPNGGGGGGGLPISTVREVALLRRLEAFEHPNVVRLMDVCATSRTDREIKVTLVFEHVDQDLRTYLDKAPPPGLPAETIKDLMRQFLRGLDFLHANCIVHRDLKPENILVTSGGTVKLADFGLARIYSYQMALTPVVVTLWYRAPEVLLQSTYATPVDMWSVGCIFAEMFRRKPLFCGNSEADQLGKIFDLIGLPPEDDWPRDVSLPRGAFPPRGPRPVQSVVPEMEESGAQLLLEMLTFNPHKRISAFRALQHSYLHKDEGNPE
T3 sequence (P24385 whole entry partner): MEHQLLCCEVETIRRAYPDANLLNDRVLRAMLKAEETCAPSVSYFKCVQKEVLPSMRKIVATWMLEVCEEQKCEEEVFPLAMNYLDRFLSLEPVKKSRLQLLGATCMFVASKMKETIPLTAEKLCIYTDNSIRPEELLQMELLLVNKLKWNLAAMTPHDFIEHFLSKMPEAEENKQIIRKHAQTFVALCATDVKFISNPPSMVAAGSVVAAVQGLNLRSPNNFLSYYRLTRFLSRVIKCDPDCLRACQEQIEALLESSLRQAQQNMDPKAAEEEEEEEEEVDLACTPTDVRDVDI
T6 sequence (P19784 whole entry): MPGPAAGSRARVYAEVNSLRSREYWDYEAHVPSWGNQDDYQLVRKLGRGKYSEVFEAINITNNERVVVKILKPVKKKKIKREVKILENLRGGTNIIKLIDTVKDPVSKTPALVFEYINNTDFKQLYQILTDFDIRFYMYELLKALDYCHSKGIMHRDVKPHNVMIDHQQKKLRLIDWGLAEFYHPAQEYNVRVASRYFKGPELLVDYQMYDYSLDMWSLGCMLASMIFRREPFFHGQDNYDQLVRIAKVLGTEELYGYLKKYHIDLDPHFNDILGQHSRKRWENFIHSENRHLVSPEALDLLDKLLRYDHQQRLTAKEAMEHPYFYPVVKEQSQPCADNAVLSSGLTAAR
T7 sequence (P22455 22-802): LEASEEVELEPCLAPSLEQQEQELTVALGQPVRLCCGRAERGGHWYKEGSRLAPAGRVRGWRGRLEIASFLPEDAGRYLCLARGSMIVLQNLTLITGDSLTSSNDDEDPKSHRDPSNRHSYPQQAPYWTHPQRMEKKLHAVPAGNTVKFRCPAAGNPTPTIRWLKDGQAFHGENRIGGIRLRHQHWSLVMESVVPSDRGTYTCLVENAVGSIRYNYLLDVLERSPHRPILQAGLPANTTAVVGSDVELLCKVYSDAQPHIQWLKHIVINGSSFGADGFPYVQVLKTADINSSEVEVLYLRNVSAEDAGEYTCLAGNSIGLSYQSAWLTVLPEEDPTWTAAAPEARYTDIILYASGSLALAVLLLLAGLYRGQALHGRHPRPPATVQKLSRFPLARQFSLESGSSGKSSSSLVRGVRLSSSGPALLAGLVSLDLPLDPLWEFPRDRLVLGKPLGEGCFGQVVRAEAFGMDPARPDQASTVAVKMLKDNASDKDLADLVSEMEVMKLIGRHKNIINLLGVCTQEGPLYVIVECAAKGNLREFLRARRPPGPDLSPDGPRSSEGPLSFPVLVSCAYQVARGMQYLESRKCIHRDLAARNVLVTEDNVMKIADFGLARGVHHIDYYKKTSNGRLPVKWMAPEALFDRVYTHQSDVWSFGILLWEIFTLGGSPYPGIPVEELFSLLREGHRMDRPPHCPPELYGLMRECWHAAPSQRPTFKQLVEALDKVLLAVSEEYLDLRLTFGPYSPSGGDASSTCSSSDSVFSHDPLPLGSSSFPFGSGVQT
T11 sequence (Q9UBS0 whole entry): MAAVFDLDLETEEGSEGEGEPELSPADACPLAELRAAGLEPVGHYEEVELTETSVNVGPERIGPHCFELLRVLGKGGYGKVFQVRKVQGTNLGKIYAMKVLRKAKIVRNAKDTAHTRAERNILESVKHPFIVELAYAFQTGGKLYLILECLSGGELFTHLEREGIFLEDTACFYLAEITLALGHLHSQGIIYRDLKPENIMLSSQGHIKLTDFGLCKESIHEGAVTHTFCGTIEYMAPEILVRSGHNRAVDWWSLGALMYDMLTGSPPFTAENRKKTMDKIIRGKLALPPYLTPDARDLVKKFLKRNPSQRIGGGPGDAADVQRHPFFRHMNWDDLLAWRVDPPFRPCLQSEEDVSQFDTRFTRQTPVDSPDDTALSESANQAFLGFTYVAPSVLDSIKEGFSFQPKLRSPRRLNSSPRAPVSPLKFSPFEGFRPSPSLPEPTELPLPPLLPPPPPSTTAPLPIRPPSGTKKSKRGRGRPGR
T9 sequence (Q13177 whole entry): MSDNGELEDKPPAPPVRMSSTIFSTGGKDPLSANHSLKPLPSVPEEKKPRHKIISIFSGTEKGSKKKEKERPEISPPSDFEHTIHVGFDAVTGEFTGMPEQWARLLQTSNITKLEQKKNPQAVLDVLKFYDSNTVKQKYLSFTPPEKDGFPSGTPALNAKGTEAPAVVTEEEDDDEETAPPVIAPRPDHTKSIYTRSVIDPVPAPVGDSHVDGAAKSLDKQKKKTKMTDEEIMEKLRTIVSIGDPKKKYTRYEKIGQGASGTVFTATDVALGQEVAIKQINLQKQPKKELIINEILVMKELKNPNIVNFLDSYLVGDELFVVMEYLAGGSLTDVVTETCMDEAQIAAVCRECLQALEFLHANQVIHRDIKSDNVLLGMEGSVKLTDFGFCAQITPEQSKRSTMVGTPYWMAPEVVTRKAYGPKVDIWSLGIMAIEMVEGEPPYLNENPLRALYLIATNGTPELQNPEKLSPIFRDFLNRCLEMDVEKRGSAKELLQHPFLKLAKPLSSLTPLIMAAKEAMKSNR
T4 sequence (P50750 whole entry): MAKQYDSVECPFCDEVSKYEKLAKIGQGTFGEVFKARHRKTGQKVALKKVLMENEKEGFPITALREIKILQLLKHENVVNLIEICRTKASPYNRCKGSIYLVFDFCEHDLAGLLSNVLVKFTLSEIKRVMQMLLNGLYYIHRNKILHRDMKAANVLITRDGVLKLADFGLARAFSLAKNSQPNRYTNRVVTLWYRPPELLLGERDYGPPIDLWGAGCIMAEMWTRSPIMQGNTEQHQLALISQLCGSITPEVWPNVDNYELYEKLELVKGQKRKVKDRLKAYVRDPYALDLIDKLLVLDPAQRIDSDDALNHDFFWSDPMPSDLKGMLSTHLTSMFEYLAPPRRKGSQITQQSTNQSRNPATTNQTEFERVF
T4 sequence (O60563 whole entry partner): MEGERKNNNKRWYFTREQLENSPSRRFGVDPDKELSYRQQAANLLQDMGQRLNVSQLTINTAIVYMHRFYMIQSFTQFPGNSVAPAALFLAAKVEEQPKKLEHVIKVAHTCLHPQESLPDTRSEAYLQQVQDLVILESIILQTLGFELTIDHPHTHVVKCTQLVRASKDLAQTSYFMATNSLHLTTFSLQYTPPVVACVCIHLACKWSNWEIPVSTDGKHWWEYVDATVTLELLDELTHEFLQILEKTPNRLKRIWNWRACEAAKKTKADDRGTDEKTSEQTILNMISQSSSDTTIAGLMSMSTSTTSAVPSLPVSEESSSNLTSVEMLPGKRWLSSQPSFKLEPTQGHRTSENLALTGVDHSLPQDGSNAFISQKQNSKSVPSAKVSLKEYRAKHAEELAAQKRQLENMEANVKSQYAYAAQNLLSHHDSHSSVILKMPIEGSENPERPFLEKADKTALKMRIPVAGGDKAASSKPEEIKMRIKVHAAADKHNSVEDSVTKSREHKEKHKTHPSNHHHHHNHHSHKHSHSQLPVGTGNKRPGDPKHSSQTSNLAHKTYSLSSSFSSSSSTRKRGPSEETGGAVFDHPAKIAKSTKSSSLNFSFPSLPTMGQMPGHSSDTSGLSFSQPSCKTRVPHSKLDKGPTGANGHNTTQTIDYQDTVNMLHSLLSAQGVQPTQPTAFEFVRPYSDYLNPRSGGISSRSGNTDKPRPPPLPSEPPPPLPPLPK

As a reminder, the inhibition is the relative decrease from the control value, in per cent. Turning to `COc1ccc2c(c1OC)c(=O)n1c3ccc(O)cc3c3ccnc2c31` [MW01, 5-Hydroxy-10,11-dimethoxy-9H-benzo[c]indolo[3,2,1-ij][1,5]naphthyridin-9-one], the inhibition at 1 µM is 7% at ABL1 E255K; 8% on AURKA (Aurora A); -8% on CDK4/cyclin D1; 11% at CDK9/cyclin T1; 23% in [1]; 16% on CSNK2A2 (CK2 alpha 2). Also, the inhibition at 1 µM was 13% at FGFR4; 26% on MELK; 14% at PAK2 (PAK65); 13% at PI4KA (PI4K alpha); 7% on RPS6KB2 (p70S6Kb); -4% at SGK (SGK1). The inhibition at 10 µM was 11% at ABL1 E255K; 18% at AURKA (Aurora A); -4% at CDK4/cyclin D1; 20% on CDK9/cyclin T1; 64% in experiment [1]; 29% on CSNK2A2 (CK2 alpha 2). For the same compound, the inhibition at 10 µM on FGFR4 is 37%; on MELK, 54%; at PAK2 (PAK65) it was 7%; at PI4KA (PI4K alpha) it was 23%; on RPS6KB2 (p70S6Kb), 1%; on SGK (SGK1), 15%.

As to `COc1ccc2cc3c(N)nn(C(=O)c4cccc(N(C)C)c4)c3nc2c1` [MW05, (3-Amino-7-methoxypyrazolo[3,4-b]quinolin-1-yl)-[3-(dimethylamino)phenyl]methanone], the inhibition at 1 µM is 6% at ABL1 E255K; 7% on AURKA (Aurora A); -3% on CDK4/cyclin D1; 19% at CDK9/cyclin T1; 0% in [1]; 7% at CSNK2A2 (CK2 alpha 2). For the same compound, the inhibition at 1 µM is 13% at FGFR4; 28% on MELK; 14% at PAK2 (PAK65); 1% at PI4KA (PI4K alpha); 3% on RPS6KB2 (p70S6Kb); -2% on SGK (SGK1). In addition, the inhibition at 10 µM on ABL1 E255K was 5%; on AURKA (Aurora A), -5%; at CDK4/cyclin D1, -1%; on CDK9/cyclin T1, 57%; in [1] it was 6%; on CSNK2A2 (CK2 alpha 2), 4%. In addition, the inhibition at 10 µM is -4% at FGFR4; 48% at MELK; 4% on PAK2 (PAK65); -1% at PI4KA (PI4K alpha); 15% on RPS6KB2 (p70S6Kb); -12% at SGK (SGK1).

The values are drawn from EP4467141A1, “PYRAZOLO-QUINOLINES AS SELECTIVE INHIBITORS OF GENOTOXIC STRESS-INDUCED IKK/NF- KB PATHWAYS FOR CANCER THERAPY” (Max-Delbrück-Centrum für Molekulare Medizin in der …, priority 2023, dated 2024).
